Measured values: article PMC12621569 (Antiviral research, 2025)
Like-named read-outs stand apart in the source and are kept apart here.

What was measured:
[1] = target: A (H1N1)pdm09 neuraminidase (NA); type: biochemical, influenza A (H1N1)pdm09 virus; settings: read-out: IC50 Median
[2] = target: B/Victoria neuraminidase (NA); type: biochemical, influenza B/Victoria lineage virus
[3] = target: A (H3N2) neuraminidase (NA) (Influenza A virus (H3N2), UniProt V9SU56); type: biochemical
B/Victoria viruses = type: cell-based, influenza B/Victoria lineage virus
A(H1N1)pdm09 viruses = type: cell-based, influenza A(H1N1)pdm09 virus; settings: read-out: Median EC50
A(H3N2) viruses = type: cell-based, influenza A(H3N2) virus; settings: read-out: Median EC50
type A viruses = settings: cited from earlier work
[4] = tested on: influenza B virus infections; settings: human, in vivo; cited from earlier work
[5] = tested on: type B versus type A viruses; settings: cited from earlier work

Work on CCC(CC)[C@H](NC(C)=O)[C@@H]1[C@H](O)[C@@H](C(=O)O)C[C@H]1N=C(N)N [Peramivir, peramivir] yielded an IC50 [1] of 0.07 nM, an IC50 ([2]; read-out: IC50 Mean ± SD) of 0.35 ± 0.11 nM and an IC50 ([2]; read-out: IC50 Median) of 0.33 nM. It also gave an IC50 ([2]; read-out: IC50 Range) of 0.14 to 0.88 nM, an IC50 ([3]; read-out: IC50 Mean ± SD) of 0.09 ± 0.02 nM and an IC50 ([3]; read-out: IC50 Median) of 0.08 nM. For the same compound, the IC50 ([3]; read-out: IC50 Range) was 0.05 to 0.25 nM.
In the case of O=C1c2c(O)c(=O)ccn2N([C@@H]2c3ccccc3SCc3c2ccc(F)c3F)[C@@H]2COCCN12 [Baloxavir, baloxavir], the “median EC50 for B/Victoria viruses, fold higher than influenza A subtypes” value (B/Victoria viruses) is reported as 5–7 fold, the EC50 (B/Victoria viruses; read-out: Median EC50) is reported as 4.06 nM and the EC50 (A(H1N1)pdm09 viruses) is reported as 0.8 nM. For the same compound, the EC50 (A(H3N2) viruses) was 0.58 nM, the “elevated baloxavir EC50” value (type A viruses) was “• Treatment-emergent • Rarely as natural polymorphisms • Confer elevated baloxavir EC50 (4–112-fold)” and the effectiveness in treatment [4] was “more effective than oseltamivir”.
For CCOC(=O)C1=C[C@@H](OC(CC)CC)[C@H](NC(C)=O)[C@@H](N)C1 [Oseltamivir, oseltamivir], the “lower activity against type B versus type A viruses” value [5] is given as 47- to 80 fold and the “clinical effects against influenza B compared to influenza A virus infections” value [4] is given as “reduced effects”.
